Assay results taken from patent US20130323283A1, “COMPOSITIONS AND METHODS FOR TREATING FOXP3+ TREG RELATED DISEASES” (THE CHILDREN'S HOSPITAL OF PHILADELPHIA, priority 2010, published 2013).

Experiments:
cardiac allografts = assay: cardiac allograft model (BALB/c hearts into B6 RAG-/- recipients with adoptive transfer); format: in vivo, mice
From the text: The effects of several HAT inhibitors (HATi) in a cardiac allograph model were studied in three experiments. This model involved vascularized cardiac allografts from BALB/c donors transplanted into immunodeficient C57BL/6 RAG−/− (B6 RAG−/−) recipients. The recipients were adoptively transferred with 1×10^6 purified C57BL/6 Teff cells (CD4+CD25−) alone or in combination with 0.5×10^6 purified Treg cells (CD4+CD25+). The cardiac allograft survival rates of the allograft recipients were monitored over a period of 120 days post-transplant.
In the first experiment, the allograft recipients were adoptively transferred with 1×10^6 Teff cells and 0.5×10^6 purified Tregs (CD4+CD25+), and treated with DMSO (control) or a HAT inhibitor via Alzet pump. Four HAT inhibitors were tested. […] One was a PCAF/GCN5 inhibitor, Lys-20-CoA-Tat. […] Rejection was defined as cessation of heartbeat.
The p300i was delivered to the allograft recipients at 0.9 mg/kg/d for 14 d using Alzet pumps.
In the third experiment, B6/RAG−/− mice (n=4/grp) were engrafted with fully MHC-mismatched BALB/c cardiac grafts and adoptively transferred with WT B6 Teff cells (1×10^6) alone or plus Tregs (0.5×10^6). […] Use of p300−/− Tregs was also unable to suppress Teff cells and prolong allograft survival in this adoptive transfer model.

Treg and Teff cells [1] = assay: gene expression by Treg and Teff cells from treated mice (qPCR); format: in vivo; conditions: cells from mice given 0.9 mg/kg/day for 7 days
Procedure: (§1) Treg and Teff cells were purified using magnetic beads from DMSO- or p300i-treated mice.
Gene expression by Treg and Teff cells from DSMO- or C646-treated mice (four mice/group) was analyzed by qPCR.

CFSE-labeled T cells = assay: second parent-to-F1 assay (B6 T cells into B6D2F1 mice); format: in vivo; conditions: 0.9 mg/kg/d for 3 days by Alzet pumps
From the text: The percentages of CFSE-labeled CD4 proliferating cells from DSMO- and C646-treated mice were 94.5% and 95.0%, respectively. The percentages of CFSE-labeled CD8 proliferating or dividing cells from DSMO- and C646-treated mice were 78.5% and 81.6%, respectively. Donor CD4 and CD8 cells (H-2d negative) from both groups had similar alloantigen-induced activation and proliferation (p>0.05).

Teffs and Tregs = assay: CD4+ Foxp3+ proportion and MFI in Teffs and Tregs by flow cytometry; format: cell-based; conditions: 6 hours
Procedure: Teffs and Tregs were isolated, and treated with 5, 10, or 20 μM p300i or DMSO for 6 hours. Flow cytometry was used to determine the CD4+ Foxp3+ proportion in Teffs or Tregs (Table 2) and the mean fluorescent intensity (MFI) of CD4+ Foxp3+ cells in Teffs or Tregs (Table 3) before or after being treated with p300i or DMSO.

Tregs = assay: in vitro murine Treg suppression assay (CFSE-labeled Teff proliferation); format: cell-based; conditions: for % proliferating cells: 5 μM, 72 hours
Procedure: Med. (2007) 13:1299-307, the contents of which are incorporated by their entireties. In these assays, effector T cells (Teffs) were labeled with carboxyfluorescein diacetate succinimidyl ester (CFSE), and stimulated by CD3 mAb plus irradiated antigen presenting cells (APCs). […] The percentage of proliferating CFSE-labeled Teffs in each mixture was assessed by flow cytometry after 72 hours as shown in Table 1.

TC1 lung cancer cells [2] = assay: TC1 lung cancer tumor growth in immunodeficient RAG-/- mice; format: in vivo
Procedure: TC1 lung cancer cells were injected in the flanks of RAG−/− mice. […] Tumors were harvested from the mice 17 days post-tumor injection. Tumor volume was monitored on days 0, 5, 10, 13 and 17 post-tumor injection. […] Tumors were exposed to C646 in RAG−/− mice. […] No effects on acetylation of certain p300-independent targets in the tumor extracts was observed (e.g. acetylation of alpha-tubulin was unimpaired).

Tregs and Teff cells = assay: Treg suppression assays with cells purified from treated mice; format: in vivo; conditions: Treg:Teff 2:1 to 0:1
From the text: as §1

B6 mice = assay: T cell proportions in lymph nodes and spleen of treated mice; format: in vivo; conditions: for CD4 proportion / CD8 proportion / CD62L CD44 proportion / Foxp3+ CD4 proportion: 0.9 mg/kg/day via Alzet pump for 7 days
Procedure: as §1
The proportions of CD4, CD8, Foxp3+ CD4, or CD62L CD44 (markers of memory vs. naive T cells) cells in lymph nodes (LN) and spleen (SP) of DMSO- and C646-treated mice were determined as shown in Table 4.

Treg and Teff cells [3] = assay: Treg and Teff gene expression in vitro by qPCR; format: cell-based; conditions: 5 μM, 24 hours, CD3/CD28 mAbs plus IL-2
Procedure: Gene expression Foxp3, CTLA-4, GITR and TGF-β in the activated Treg and Teff cells was determined by qPCR (mean±SD, n=3/grp) and normalized to 18S.

TC1 lung cancer cells [4] = assay: TC1 lung cancer tumor growth in WT B6 mice; format: in vivo
Procedure: In the second experiment, p300 inhibition was achieved by using a p300 inhibitor. TC1 lung cancer cells were injected in the flanks of WT B6 mice. […] Tumor volume was monitored in the mice on days 6, 10, 12, 15 and 19 post-tumor injection (FIG. 5B). […] DMSO- and C646-treated mice having tumors were obtained as described in Example 9. […] The growth of tumors in the mice was monitored by tumor volume and tumor weight (FIG. 6B).

[5] = system: CFSE-labeled CD4 and CD8 cells; assay: first parent-to-F1 assay (C57BL/6->DBA/B6), alloantigen-induced T cell proliferation in vivo; parameters: species or system mice; conditions: 0.8 mg/kg/d continuous via Alzet pump; 3 day assay
From the text: In the first parent-to-F1 assay (C57BL/6->DBA/B6) (Tao et al., J. Immunol. (2005) 175:5774-82; Tao et al., J. Immunol. (2008) 180:6649-55; the contents of both of which are incorporated herein in their entireties), activation and proliferation of adoptively transferred CFSE-labeled CD4 and CD8 cells was monitored by flow cytometry in a 3 day assay. […] The percentages of CFSE-labeled CD4 proliferating or dividing cells from DSMO- and C646-treated mice were 65% and 73%, respectively. The percentages of CFSE-labeled CD8 proliferating or dividing cells from DSMO- and C646-treated mice were 93% and 95%, respectively.

[6] = compared with DMSO-treated mice, p<0.005
[7] = qPCR, tumors from treated mice vs DMSO

**Q.** What does the source list for `CC1=NN(c2ccc(C(=O)O)cc2)C(=O)/C1=C\c1ccc(-c2cc(C)c(C)cc2[N+](=O)[O-])o1` [C646]?
**A.** cardiac allograft rejection (cessation of heartbeat) (cardiac allografts; first experiment: 1×10^6 Teff plus 0.5×10^6 Tregs, HAT inhibitor via Alzet pump, DMSO gave long-term survival): restored rejection; Teff cell responses in vivo (allograft rejection) (cardiac allografts; second experiment: Teff cells alone plus p300i 0.9 mg/kg/d for 14 d, Alzet pumps): does not suppress Teff cell responses in vivo; graft function (isografts) (cardiac allografts; second experiment: WT B6 mice with normal B6 hearts): does not directly affect graft function; T cell-dependent graft rejection (cardiac allografts; third experiment: Teff plus Tregs, Alzet pumps for 14 days): restored T cell-dependent graft rejection; expression of CTLA4 by Treg cells (Treg and Teff cells [1]; p<0.01): significantly decreased; expression of GITR by Treg cells (Treg and Teff cells [1]; p<0.01): significantly decreased; expression of IL-10 by Treg cells (Treg and Teff cells [1]; p<0.01): significantly decreased; expression of TGF-β by Treg cells (Treg and Teff cells [1]; p<0.01): significantly decreased; expression of CTLA4, GITR, IL-10 and TGF-β by Teff cells (Treg and Teff cells [1]; p>0.05): unchanged; percentage of CFSE-labeled CD4 proliferating cells (CFSE-labeled T cells): 95.0%; percentage of CFSE-labeled CD8 proliferating or dividing cells (CFSE-labeled T cells): 81.6%; mean fluorescent intensity (MFI) of CD4+ Foxp3+ cells (Teffs and Tregs; Teff, 5 μM): 121; mean fluorescent intensity (MFI) of CD4+ Foxp3+ cells (Teffs and Tregs; Teff, 10 μM): 108; mean fluorescent intensity (MFI) of CD4+ Foxp3+ cells (Teffs and Tregs; Teff, 20 μM): 91; CD4+ Foxp3+ proportion (Teffs and Tregs; Teffs, 5 μM): 2; CD4+ Foxp3+ proportion (Teffs and Tregs; Teffs, 10 μM): 2; CD4+ Foxp3+ proportion (Teffs and Tregs; Teffs, 20 μM): 1; mean fluorescent intensity (MFI) of CD4+ Foxp3+ cells (Teffs and Tregs; Treg, 5 μM): 280; mean fluorescent intensity (MFI) of CD4+ Foxp3+ cells (Teffs and Tregs; Treg, 10 μM): 253; mean fluorescent intensity (MFI) of CD4+ Foxp3+ cells (Teffs and Tregs; Treg, 20 μM): 138; CD4+ Foxp3+ proportion (Teffs and Tregs; Tregs, 5 μM): 71; CD4+ Foxp3+ proportion (Teffs and Tregs; Tregs, 10 μM): 68; CD4+ Foxp3+ proportion (Teffs and Tregs; Tregs, 20 μM): 49; suppressive actions of Tregs (Tregs; HATi 5 μM): largely abrogated the suppressive actions of Tregs; % proliferating cells (Tregs; Treg:Teff 0:1): 88%; % proliferating cells (Tregs; Treg:Teff 1:1): 66%; % proliferating cells (Tregs; Treg:Teff 1:2): 70%; % proliferating cells (Tregs; Treg:Teff 1:4): 78%; % proliferating cells (Tregs; Treg:Teff 1:8): 85%; tumor growth (tumor volume) (TC1 lung cancer cells [2]; Alzet pumps from day 5, up to day 17): did not impair tumor growth; acetylation of histone 3 in tumor extracts (TC1 lung cancer cells [2]; compared to DMSO-treated mice): Decreased acetylation of histone 3; acetylation of alpha-tubulin in tumor extracts (TC1 lung cancer cells [2]; p300-independent target): unimpaired; ability of Tregs to suppress proliferation of Teff cells from untreated mice (Tregs and Teff cells; Tregs from C646-treated mice, p<0.05): decreased; response of Teff cells from treated mice to suppression by control normal Tregs (Tregs and Teff cells; Tregs from untreated mice): responded normally; effect on the proportions of the tested cells (CD4, CD8, Foxp3+ CD4, CD62L CD44) (B6 mice; LN and SP, compared to DMSO-treated mice, 0.9 mg/kg/day, 7 days): negligible effect; CD4 proportion (B6 mice; LN): 35; CD8 proportion (B6 mice; LN): 34; CD62L CD44 proportion (B6 mice; LN): 6; Foxp3+ CD4 proportion (B6 mice; LN): 8; CD4 proportion (B6 mice; SP): 18; CD8 proportion (B6 mice; SP): 12; CD62L CD44 proportion (B6 mice; SP): 12; Foxp3+ CD4 proportion (B6 mice; SP): 13; Treg expression of GITR gene (Treg and Teff cells [3]): downregulated; Treg expression of CTLA-4 gene (Treg and Teff cells [3]; statistical significance): downregulated; Treg expression of Foxp3 gene (Treg and Teff cells [3]; statistical significance): downregulated; Treg expression of TGF-β gene (Treg and Teff cells [3]; statistical significance): downregulated; tumor growth (tumor volume) (TC1 lung cancer cells [4]; 0.9 mg/kg/day for about 14 days via Alzet pumps from day 6, days 6-19): suppressed tumor growth; tumor growth by volume (TC1 lung cancer cells [4]; [6]): significantly reduced; tumor growth by weight (TC1 lung cancer cells [4]; [6]): significantly reduced; intratumoral CD4 mRNA (TC1 lung cancer cells [4]; [7]): significantly increased; intratumoral CD8 mRNA (TC1 lung cancer cells [4]; [7]): comparable; intratumoral Foxp3 mRNA (TC1 lung cancer cells [4]; [7]): significantly reduced; intratumoral granzyme B mRNA (TC1 lung cancer cells [4]; [7]): significantly increased; IFN-γ production by purified CD8 (ELISPOT) (TC1 lung cancer cells [4]; tumor-bearing treated mice): increased; alloantigen-induced T cell activation or proliferation (CFSE dilution) or production of cytokines such as IL-2 and IFN-γ [5]: did not impair; percentage of CFSE-labeled CD4 proliferating or dividing cells [5]: 73%; percentage of CFSE-labeled CD8 proliferating or dividing cells [5]: 95%
